# Measured values from ChEMBL document CHEMBL1201862, “PubChem BioAssay data set” (2004).
# Calls of active or inactive are those of the source.
# Legend:
# Kallikrein-7 = Kallikrein-7 (Homo sapiens, UniProt P49862); assay: Fluorescence Intensity-based biochemical primary high throughput dose response assay to identify activators of kallikrein-7 (K7) zymogen.
# [1] = blockers of bursicon-stimulated LGR2 cAMP reporter – cell-based, HEK293, CRE-luciferase reporter, cherry pick, set 2, dose response (AID 743343); assay type: functional;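 also: transfected cells were stimulated with diluted bursicon conditioned medium after compound addition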
# [2] = blockade of melanocortin 4 receptor signaling – cell-based, plate reader, cherry pick, counter-screen for LGR2 antagonist project, dose response (AID 743444); assay type: functional;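 also: transfected HEK 293 cells stimulated with alpha-MSH peptide; potency of inhibitors of the alpha-MSH evoked signal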
# [3] = viability loss in HEK293 cells – cell-based, plate reader, cherry-picked samples, cytotoxicity control, dose response (AID 743446); assay type: functional
# Paired box protein Pax-8 = Paired box protein Pax-8 (Homo sapiens, UniProt Q06710); assay: PAX8 transcriptional activity inhibition in RMG-I – RMG-I cells, luciferase, cherry-pick, dose response (AID 687027); assay type: functional, cell-based;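 also: luciferase reporter driven by Pax8 target thyroperoxidase promoter measured by SteadyGlo luminescence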
# [4] = general cell-killing toxicity readout – plate reader, dry powder samples, cytotoxicity control for PAX8 inhibitor project, dose response (AID 743021); assay type: functional, cell-based
# Albumin = Albumin (Bos taurus, UniProt P02769); assay: Counterscreen for inhibitors of T-cell receptor (TCR)-CD3 interaction: Fluorescence-based biochemical high throughput dose response assay to identify inhibitors of T-cell receptor (TCR)-CD3 interaction using a TAMRA-labeled BSA probe.; assay type: functional
# [5] = HGIII-sPLA2 enzyme inhibition potency – biochemical, QFRET, IC50, dose response (AID 743457);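 also: green fluorescence rise as the enzyme cleaves BODIPY PC-A2 in liposomes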
# [6] = A2780 cell killing – plate reader, dry powder samples, cytotoxicity control, dose response (AID 743046); assay type: functional, cell-based
# [7] = OVCAR8 cell viability loss – plate reader, dry powder samples, PAX8 project, dose response (AID 743197); assay type: functional, cell-based; conditions: OVCAR-8
# Caspase-3 = biological target: T1, Caspase-3 (Homo sapiens, UniProt P42574); assay type: functional;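 also: Dose-response selectivity test against caspase-3 for candidate inhibitors of sentrin-specific proteases (SENPs)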
# T1 sequence (P42574 whole entry): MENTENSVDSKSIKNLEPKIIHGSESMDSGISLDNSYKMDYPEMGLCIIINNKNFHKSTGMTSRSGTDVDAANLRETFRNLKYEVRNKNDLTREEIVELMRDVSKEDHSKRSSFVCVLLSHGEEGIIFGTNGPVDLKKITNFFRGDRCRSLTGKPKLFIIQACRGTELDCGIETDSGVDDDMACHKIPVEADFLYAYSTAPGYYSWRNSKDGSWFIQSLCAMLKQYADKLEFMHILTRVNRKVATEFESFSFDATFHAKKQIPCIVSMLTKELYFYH
# [8] = biological target: T2, Sentrin-specific protease 7 (Homo sapiens, UniProt Q9BQF6); assay type: functional;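 also: Luminescence-based dose-response confirmation of ultra-high-throughput screening hits, measuring inhibition of SENP7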
# T2 sequence (Q9BQF6 whole entry): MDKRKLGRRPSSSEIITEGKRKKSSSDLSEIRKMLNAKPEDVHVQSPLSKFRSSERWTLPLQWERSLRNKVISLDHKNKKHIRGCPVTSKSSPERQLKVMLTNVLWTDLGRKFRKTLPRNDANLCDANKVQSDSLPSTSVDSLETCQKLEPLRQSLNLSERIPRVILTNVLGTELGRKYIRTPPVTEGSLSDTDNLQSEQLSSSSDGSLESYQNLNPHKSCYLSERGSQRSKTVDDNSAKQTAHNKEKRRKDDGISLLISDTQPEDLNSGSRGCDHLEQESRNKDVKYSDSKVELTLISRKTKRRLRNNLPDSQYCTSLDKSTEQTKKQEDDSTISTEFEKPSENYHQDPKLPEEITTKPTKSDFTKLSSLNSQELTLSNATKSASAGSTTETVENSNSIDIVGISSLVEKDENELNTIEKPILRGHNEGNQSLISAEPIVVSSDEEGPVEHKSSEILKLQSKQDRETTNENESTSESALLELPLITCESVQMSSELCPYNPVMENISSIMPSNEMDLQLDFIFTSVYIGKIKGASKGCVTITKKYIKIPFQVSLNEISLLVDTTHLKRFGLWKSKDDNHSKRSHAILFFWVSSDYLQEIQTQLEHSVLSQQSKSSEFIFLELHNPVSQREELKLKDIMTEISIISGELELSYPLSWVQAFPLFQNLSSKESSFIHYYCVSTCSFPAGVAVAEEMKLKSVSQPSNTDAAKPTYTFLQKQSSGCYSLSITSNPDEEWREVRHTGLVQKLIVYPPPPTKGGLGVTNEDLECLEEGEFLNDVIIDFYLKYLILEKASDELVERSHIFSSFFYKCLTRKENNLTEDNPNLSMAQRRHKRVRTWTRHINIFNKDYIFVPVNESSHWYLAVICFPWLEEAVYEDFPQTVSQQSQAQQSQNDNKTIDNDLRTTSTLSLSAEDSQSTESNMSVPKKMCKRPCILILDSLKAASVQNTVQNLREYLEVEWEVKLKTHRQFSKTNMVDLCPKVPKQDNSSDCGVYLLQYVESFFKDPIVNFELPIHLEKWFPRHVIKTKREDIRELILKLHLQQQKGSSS
# [9] = biological target: T3, Sentrin-specific protease 6 (Homo sapiens, UniProt Q9GZR1); assay type: functional;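 also: Luminescence-based dose-response confirmatory assay of SENP6 inhibition, following up an ultra-high-throughput screen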
# T3 sequence (Q9GZR1 whole entry): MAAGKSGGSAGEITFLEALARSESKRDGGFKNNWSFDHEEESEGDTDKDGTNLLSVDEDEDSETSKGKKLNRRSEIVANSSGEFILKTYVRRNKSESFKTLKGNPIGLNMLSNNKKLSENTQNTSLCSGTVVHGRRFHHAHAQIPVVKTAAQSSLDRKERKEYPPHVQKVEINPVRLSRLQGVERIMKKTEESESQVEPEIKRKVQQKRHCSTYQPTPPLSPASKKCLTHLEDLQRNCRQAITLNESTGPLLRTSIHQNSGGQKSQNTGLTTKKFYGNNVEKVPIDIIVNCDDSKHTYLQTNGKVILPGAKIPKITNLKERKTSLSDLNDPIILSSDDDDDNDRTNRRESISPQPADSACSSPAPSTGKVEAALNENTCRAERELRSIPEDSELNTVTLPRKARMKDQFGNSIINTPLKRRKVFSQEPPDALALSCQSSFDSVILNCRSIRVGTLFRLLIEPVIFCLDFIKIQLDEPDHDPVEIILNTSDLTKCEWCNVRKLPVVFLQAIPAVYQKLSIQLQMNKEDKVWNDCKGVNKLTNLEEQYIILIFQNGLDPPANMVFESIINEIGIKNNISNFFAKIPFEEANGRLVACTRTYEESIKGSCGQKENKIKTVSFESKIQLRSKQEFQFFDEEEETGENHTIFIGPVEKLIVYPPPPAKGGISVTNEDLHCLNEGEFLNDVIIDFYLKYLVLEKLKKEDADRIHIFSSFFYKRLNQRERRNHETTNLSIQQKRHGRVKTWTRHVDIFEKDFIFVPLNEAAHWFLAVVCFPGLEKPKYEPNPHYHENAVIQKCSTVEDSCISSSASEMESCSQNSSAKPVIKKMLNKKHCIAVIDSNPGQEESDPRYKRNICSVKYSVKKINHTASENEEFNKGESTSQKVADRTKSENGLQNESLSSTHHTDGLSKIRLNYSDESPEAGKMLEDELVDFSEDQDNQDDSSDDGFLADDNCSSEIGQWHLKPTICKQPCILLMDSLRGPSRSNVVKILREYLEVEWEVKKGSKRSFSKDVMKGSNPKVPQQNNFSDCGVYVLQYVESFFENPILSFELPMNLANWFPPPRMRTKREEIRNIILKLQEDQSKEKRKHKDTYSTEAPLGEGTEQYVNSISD
# [10] = biological target: T4, Sentrin-specific protease 8 (Homo sapiens, UniProt Q96LD8); assay type: functional
# T4 sequence (Q96LD8 whole entry): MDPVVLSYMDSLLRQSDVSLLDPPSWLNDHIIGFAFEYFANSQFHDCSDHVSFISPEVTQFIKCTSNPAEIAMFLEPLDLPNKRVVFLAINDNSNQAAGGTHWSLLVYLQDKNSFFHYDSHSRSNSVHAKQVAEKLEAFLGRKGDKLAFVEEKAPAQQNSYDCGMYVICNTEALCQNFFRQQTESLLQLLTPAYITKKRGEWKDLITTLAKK
# [11] = biological target: T4, Sentrin-specific protease 8; assay type: functional; remark: listed apart in the source
# [12] = biological target: T4, Sentrin-specific protease 8; assay type: functional; remark: listed apart in the source
# Caspase-6 = biological target: T5, Caspase-6 (Homo sapiens, UniProt P55212); assay: inhibition of CASP6 peptide cleavage – biochemical, VEID-R110 fluorescence, cherry-pick, dose response (AID 720632)
# T5 sequence (P55212 whole entry): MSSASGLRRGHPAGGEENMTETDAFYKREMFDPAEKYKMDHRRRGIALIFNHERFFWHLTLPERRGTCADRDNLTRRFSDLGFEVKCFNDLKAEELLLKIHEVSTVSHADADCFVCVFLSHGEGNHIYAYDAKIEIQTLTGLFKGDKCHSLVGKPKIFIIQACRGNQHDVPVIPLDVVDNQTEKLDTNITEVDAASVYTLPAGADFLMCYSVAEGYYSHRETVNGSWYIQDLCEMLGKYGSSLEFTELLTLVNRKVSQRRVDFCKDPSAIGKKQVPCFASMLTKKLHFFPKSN
# [13] = biological target: T6, RNA-binding protein pos-1 (Caenorhabditis elegans, UniProt G5EF15); assay: disruptors of C. elegans POS-1 RNA interaction – biochemical, fluorescence polarization, dose response (AID 1964);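 also: purified POS-1 fused to maltose binding protein made in E. coli; potency of compounds blocking POS-1 binding to fluorescent RNA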
# T6 sequence (G5EF15 whole entry): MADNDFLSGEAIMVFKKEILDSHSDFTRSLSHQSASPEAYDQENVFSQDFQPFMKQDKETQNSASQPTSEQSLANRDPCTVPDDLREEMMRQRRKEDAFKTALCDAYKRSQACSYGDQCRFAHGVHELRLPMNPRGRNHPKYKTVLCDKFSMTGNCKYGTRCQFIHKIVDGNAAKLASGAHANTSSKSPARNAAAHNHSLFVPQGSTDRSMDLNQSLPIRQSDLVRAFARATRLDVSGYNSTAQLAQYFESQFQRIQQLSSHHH
# cells [14] = assay type: functional, cell-based
# [15] = biological target: T7, Zinc finger protein mex-5 (Caenorhabditis elegans, UniProt Q9XUB2); assay: potency of MEX-5 RNA-binding blockers – biochemical, C. elegans, fluorescence polarization, dose response (AID 1960)
# T7 sequence (Q9XUB2 whole entry): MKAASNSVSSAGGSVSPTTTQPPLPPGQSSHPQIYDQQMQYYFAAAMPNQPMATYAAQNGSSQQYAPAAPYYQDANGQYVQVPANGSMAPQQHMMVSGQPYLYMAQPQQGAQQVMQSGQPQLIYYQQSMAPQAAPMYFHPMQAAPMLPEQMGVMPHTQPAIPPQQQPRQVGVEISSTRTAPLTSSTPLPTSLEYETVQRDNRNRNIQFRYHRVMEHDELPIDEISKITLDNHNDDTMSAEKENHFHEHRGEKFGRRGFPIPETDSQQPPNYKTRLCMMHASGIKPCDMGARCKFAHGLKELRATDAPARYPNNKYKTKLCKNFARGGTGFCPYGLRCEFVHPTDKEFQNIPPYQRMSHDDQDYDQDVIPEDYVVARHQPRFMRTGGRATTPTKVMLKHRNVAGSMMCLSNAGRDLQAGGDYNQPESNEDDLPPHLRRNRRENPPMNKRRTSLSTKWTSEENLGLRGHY
# Large T antigen = Large T antigen (Simian virus 40, UniProt P03070); assay type: functional, Betapolyomavirus macacae;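 also: Confirmatory-stage PubChem screen for compounds that inhibit SV40 T antigen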
# cells [16] = assay type: functional, cell-based; remark: listed apart in the source
# [17] = biological target: FAD-linked sulfhydryl oxidase ALR (Homo sapiens, UniProt P55789); assay: ALR-catalysed DTT oxidation blockers – biochemical, H2O2 detection, luminescence, cherry-pick, dose response (AID 493248)
# [18] = reduction of Shn3 3'UTR-driven luciferase in osteoblasts – cell-based, Clone20 osteoblasts, firefly luciferase, cherry-picked, dose response (AID 624132); assay type: functional;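 also: firefly luciferase luminescence from reporter carrying the Shn3 3'UTR in osteoblasts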
# [19] = non-specific 3'UTR reporter inhibition in Clone20-Shn3RL – cell-based, Renilla luciferase, cherry-picked, counter-screen for Shn3 inhibitor project, dose response (AID 624133); assay type: functional
# Sequence of Albumin (P02769 whole entry): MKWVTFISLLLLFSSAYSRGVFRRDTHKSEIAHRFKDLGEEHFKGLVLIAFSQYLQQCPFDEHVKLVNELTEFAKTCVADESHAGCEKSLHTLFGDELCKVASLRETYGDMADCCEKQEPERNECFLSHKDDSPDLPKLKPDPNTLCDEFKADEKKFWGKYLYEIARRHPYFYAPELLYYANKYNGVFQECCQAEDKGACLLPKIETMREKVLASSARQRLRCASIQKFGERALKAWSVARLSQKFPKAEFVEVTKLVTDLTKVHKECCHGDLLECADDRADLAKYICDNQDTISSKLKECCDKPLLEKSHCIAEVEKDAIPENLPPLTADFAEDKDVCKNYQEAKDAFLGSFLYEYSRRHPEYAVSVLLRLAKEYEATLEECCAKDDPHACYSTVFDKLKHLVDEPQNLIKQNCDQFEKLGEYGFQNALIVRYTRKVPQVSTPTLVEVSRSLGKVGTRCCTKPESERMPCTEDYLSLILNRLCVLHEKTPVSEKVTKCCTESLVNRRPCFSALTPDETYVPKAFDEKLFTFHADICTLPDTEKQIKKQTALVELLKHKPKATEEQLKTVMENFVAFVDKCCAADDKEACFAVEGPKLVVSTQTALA
# Sequence of Kallikrein-7 (P49862 whole entry): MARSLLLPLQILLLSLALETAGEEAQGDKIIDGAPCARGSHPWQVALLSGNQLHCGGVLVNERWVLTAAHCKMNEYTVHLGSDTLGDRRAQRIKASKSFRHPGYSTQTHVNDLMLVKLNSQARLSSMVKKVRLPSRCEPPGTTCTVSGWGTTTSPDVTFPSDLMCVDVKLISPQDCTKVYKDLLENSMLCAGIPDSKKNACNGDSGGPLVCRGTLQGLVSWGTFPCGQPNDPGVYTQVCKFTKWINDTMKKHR
# Sequence of Paired box protein Pax-8 (Q06710 whole entry): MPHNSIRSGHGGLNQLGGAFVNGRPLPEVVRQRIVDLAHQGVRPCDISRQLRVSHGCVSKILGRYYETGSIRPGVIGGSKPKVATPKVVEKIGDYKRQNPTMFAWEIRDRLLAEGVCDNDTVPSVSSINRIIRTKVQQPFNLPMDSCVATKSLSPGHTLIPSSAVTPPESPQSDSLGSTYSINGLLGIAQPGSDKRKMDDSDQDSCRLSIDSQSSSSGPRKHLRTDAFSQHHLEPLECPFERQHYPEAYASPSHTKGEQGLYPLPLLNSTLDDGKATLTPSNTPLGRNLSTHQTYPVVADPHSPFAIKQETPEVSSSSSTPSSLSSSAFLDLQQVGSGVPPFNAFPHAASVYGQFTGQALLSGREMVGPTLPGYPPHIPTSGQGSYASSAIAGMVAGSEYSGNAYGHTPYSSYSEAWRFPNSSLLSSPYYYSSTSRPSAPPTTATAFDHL
# Sequence of FAD-linked sulfhydryl oxidase ALR (P55789 whole entry): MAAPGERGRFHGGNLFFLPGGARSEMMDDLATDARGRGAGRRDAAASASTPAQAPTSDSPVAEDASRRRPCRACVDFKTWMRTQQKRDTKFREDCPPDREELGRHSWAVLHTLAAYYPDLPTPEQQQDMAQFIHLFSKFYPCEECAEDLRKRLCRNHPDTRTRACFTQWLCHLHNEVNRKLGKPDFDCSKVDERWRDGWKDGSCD
# Sequence of Large T antigen (P03070 whole entry): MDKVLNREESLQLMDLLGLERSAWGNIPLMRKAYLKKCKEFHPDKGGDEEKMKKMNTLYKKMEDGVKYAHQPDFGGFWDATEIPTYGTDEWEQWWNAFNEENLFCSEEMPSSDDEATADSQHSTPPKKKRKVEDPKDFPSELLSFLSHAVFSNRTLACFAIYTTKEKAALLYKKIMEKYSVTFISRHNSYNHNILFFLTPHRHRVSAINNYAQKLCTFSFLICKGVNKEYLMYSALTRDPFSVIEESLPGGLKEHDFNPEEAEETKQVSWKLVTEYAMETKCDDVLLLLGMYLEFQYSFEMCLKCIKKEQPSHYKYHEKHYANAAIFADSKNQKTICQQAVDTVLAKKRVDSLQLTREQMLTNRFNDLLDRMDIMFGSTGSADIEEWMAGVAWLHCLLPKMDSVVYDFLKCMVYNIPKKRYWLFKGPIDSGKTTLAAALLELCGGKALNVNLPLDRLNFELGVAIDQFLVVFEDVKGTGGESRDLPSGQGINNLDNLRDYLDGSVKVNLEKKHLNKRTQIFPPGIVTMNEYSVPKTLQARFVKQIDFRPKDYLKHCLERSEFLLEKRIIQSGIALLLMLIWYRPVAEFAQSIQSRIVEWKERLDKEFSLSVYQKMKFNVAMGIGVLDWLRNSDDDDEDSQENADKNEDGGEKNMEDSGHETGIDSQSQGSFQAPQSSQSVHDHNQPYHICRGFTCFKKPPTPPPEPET
smiles,measurement,setting,value
CCOCCCn1/c(=N\C(=O)c2ccco2)c(C(=O)OCC)cc2c(=O)n3cccc(C)c3nc21,EC50,Kallikrein-7,38.7 µM (inactive)
Cc1ccc(-c2nc(-c3ccccn3)no2)cc1[N+](=O)[O-],AC50,[1],4.31 µM (active)
same,AC50,[2],14.9 µM (active)
same,AC50,[3],> 52 µM (inactive)
CCOC(=O)N1CCN(C(=O)c2ccc3nc4ccsc4c(=O)n3c2)CC1,EC50,Kallikrein-7,10.6 µM (inactive)
Oc1nc2ccccc2n1C1CCN(C(c2cccs2)c2nnnn2-c2ccc3c(c2)OCCO3)CC1 (stereo not given),AC50,Paired box protein Pax-8,1.78 µM (active)
same,AC50,[4],54.2 µM (active)
Cc1ccccc1C(=O)NNC(=S)NC(=O)c1cccnc1,IC50,Albumin,> 94.1 µM (inactive)
O=C(NNC(=O)c1ccc2ccccc2c1O)Nc1ccc(F)cc1,IC50,Albumin,> 94.1 µM (inactive)
same,IC50,[5],> 122 µM (inactive)
CN1C(=O)c2cc(NC(=O)c3cccc(Cl)c3)ccc2OC[C@@H]2O[C@H](CC(=O)NC3CCCCC3)CC[C@@H]21,AC50,Paired box protein Pax-8,7.9 µM (active)
same,AC50,[6],1.19 µM (active)
same,AC50,[7],51.9 µM (active)
Cc1ccccc1N1C(=O)Cc2ccccc2C1=O,IC50,Caspase-3,3.55 µM (active)
same,IC50,[8],23.8 µM (active)
same,IC50,[9],8.06 µM (active)
same,IC50,[10],45.7 µM (active)
same,IC50,[11],> 100 µM (inactive)
same,IC50,[12],3.22 µM (active)
same,AC50,Caspase-6,27.4 µM (active)
Cc1ccn2cc(-c3ccc(O)c(O)c3)nc2c1,EC50,[13],38 µM (active)
same,EC50,cells [14],> 350 µM (not active)
same,EC50,[15],6.88 µM (active)
same,IC50,Large T antigen,12.9 µM (active)
same,EC50,cells [16],6.58 µM (active)
same,AC50,[17],0.558 µM (active)
same,AC50,[18],2.44 µM (active)
same,AC50,[19],13 µM (active)
same,IC50,Albumin,> 94.1 µM (inactive)
CC(=O)Nc1ccc(S(=O)(=O)[N-]c2nc3ccccc3nc2-[n+]2ccc(NC(=O)c3ccccc3)cc2)cc1,EC50,Kallikrein-7,> 69.5 µM (inactive)
